Measured values from article PMC5766233, “Ternary copper(II) complex: NCI60 screening, toxicity studies, and evaluation of efficacy in xenograft models of nasopharyngeal carcinoma” (PLoS ONE, 2018).
pIC50: −log10 of the molar value. Where two headings read alike, the source gives them in different places.

Assays:
[1] = biological target: CYP 2C19 (Homo sapiens, UniProt P33261); assay: CYP450 inhibition assay, pooled human liver microsomes; settings: read-out: IC50 CYP 2C19; probe S-mephenytoin
Procedure: (§1) In the CYP inhibition assay, human liver microsomes were incubated with the Cu(II) complex or reference standard. The inhibitory effects of these compounds were investigated against the major CYP isoforms namely 1A2, 2C9, 2C19, 2D6, 2B6, 2C8 and 3A4 with their respective isoform probe substrates in one reaction mixture (pooled probe substrate format using LC-MS/MS).
(§2) Pooled human liver microsomes (Sekisui Xeno Tech, LLC., Kansas City, KS, USA) were incubated with different concentrations of Cu(II) complex or reference standards in buffer containing 0.1% DMSO for 10 min at 37°C and the residual enzyme activity was measured using pooled probe substrates method by pooled LC-MS/MS. Briefly, incubation mixtures were prepared in a total volume of 200 μL with final component concentrations as follows: 0.1 M potassium phosphate buffer (pH 7.4), 1.5 mM NADPH, and 0.25 mg/ml HLM. […] After 20 min of incubation, the reactions were terminated by addition of 200 μL ice-cold acetonitrile (Rankem, Avantor Performance Materials India Limited, Andhra Pradesh, India) containing telmisartan and carbamazepine as internal standards (all probe substrates and standards were from Sigma Aldrich). Each reaction mixture was centrifuged at 3,500 rpm for 5 min and the supernatant was subjected to LC-MS/MS analysis. The percent inhibition was calculated using the following equation: %Inhibition=100‑[(activityintestwells/activityinbasalcontrolwells)×100]

[2] = test system: CYP1A; assay: Cytochrome P450 induction assay in rat primary hepatocytes, CYP1A; type: in vitro ADME; settings: for Fold induction CYP1A: 3 days; for % of positive control CYP1A: positive control 3-methyl cholanthrene 1.0 μM
From the text: %Activity=(averagearearatiooftreated/averagearearatioofbasalcontrol)x100

[3] = test system: cervical, ovarian, lung, breast, lymphoma, leukemia, colorectal carcinoma and NPC cell lines; set-up: method as in PMID 24549332; settings: 24 h; HeLa, SKOV3, A549, PC9, MCF7, Namalwa, HL60, SW480, SW48, HCT118, HONE1, HK1, C666-1; cited from earlier work
[4] = test system: NCI60 human cancer cell line panel
[5] = Hematotoxicity evaluation (blood, spleen, bone marrow) in xenograft bearing mice; type: in vivo, NOD scid gamma female mice; settings: for Band neutrophil / Basophils / Eosinophils / Hemoglobin / Lymphocytes / MCHC / MCV / Monocytes / PVC / Plasma protein / RBC / Segmented neutrophil / Thrombocytes / WBC: C666-1-GFP-Luc2 xenograft mice, mean ± SEM
Procedure: Values of hematological parameters of mice bearing C666-1-GFP-Luc2, an Epstein-barr virus (EBV) positive NPC cell line xenografts which were treated with 4 and 5 mg/kg of the Cu(II) complex were compared with those from control groups (Table 3). […] This indicated absence of anemia.
We further investigated the effects of Cu(II) complex on spleen and bone marrow (from femur) responses.
Blood samples were collected into BD Microtainer Tubes containing dipotassium EDTA (Becton, Dickinson and Company, New Jersey, USA) and submitted to the Veterinary Laboratory Services Unit, Faculty of Veterinary Medicine, Universiti Putra Malaysia, Serdang, Malaysia, for full blood count (FBC) analysis.
Major organs, bones and excised tumors were preserved in 10% neutral buffered formaldehyde solution (Leica Biosystems, Germany) for 24 to 48 h and subsequently processed into formalin-fixed paraffin-embedded tissue blocks following standard tissue processing protocol using Leica ASP300 S (Leica Biosystems, Nussloch, Germany). Fixed bones (skull, femur and tibia) were decalcified with Surgipath Decalcifier I (Leica Biosystems, Germany) for 4 to 6 h depending on size before tissue processing. After paraffin embedding, tissue blocks were sectioned ([…]) using rotary microtome Microm HM340E (Thermo Scientific, Walldorf, Germany) and stained with hematoxylin and eosin (H&E) dyes using Leica Autostainer XL (Leica Biosystems, Nussloch, Germany) before histopathological examination.
All H&E-stained tissue section slides were examined under Nikon Eclipse Ni microscope (Nikon Instruments Inc., New York, USA) and microscopic images were taken using 20x and 40x objectives. For H&E tumor section slides, the percentage of tumor necrosis was determined qualitatively using microscope by the histopathologist in order to estimate the percentage of necrotic area induced by the Cu(II) complex in the tumors. For determination of femoral bone marrow suppression, low power (10x magnification) objective was used to scan the slides while 100x magnification to assess the degree of cellularity and amount of fat present.

[6] = test system: CYP isoforms 1A2, 2C9, 2C19, 2D6, 2B6, 2C8 and 3A4; assay: CYP450 inhibition assay, summary over all tested isoforms; type: in vitro ADME, human; settings: pooled probe substrates; read-out: IC50 values against all tested isoforms
Procedure: as §1
as §2, with “Each reaction mixture was centrifuged at 3,500 rpm for 5 min and the supernatant was subjected to LC-MS/MS analysis.” left out

Sequence of CYP 2C19 (P33261 whole entry, canonical isoform): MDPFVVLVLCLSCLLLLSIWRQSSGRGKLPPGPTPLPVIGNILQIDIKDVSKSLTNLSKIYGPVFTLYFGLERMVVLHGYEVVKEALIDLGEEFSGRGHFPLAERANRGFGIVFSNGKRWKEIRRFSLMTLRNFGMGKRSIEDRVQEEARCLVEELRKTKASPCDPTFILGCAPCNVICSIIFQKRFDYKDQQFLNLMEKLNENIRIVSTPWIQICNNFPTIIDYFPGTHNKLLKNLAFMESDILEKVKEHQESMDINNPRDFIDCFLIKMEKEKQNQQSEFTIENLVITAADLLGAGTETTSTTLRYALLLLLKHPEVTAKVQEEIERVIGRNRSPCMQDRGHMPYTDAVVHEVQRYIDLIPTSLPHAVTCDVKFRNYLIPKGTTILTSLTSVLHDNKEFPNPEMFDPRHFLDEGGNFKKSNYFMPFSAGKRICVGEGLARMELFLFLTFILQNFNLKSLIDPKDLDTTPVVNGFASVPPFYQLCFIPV

## CC(C)(N)C(=O)[O-].O.O=[N+]([O-])[O-].[Cu+2].c1cnc2c(c1)ccc1cccnc12 [Cu(II) complex, [Cu(phen)(C-dmg)(H2O)]NO3]
[1]
  pIC50: 4.99
[2]; 0.1 μM
  Fold induction CYP1A: 1.1
  % of positive control CYP1A: 10.1%
[2]; 0.3 μM
  Fold induction CYP1A: 1.4
  % of positive control CYP1A: 13.0%
[2]; 1.0 μM
  Fold induction CYP1A: 0.8
  % of positive control CYP1A: 7.4%
[2]; 0.1-1.0 μM
  induction, % of positive control, CYP1A: < 13%
[3]
  pIC50: 4.72 to 5.77
[4]
  CC50: > 100 µM
[4]; NCI60 panel
  cytotoxicity compared with cisplatin (mean LC50): fivefold more cytotoxic
[4]; read-out: LC50, all renal cell lines
  CC50: 1 to 10 µM
[4]; read-out: LC50, leukemia panel (CCRF-CEM, HL-60(TB), K-562, MOLT-2, RPMI-8226, SR)
  CC50: > 100 µM
[4]; read-out: mean GI50, NCI60 panel, 48 h
  GI50: 1.51 µM
[4]; read-out: mean LC50, NCI60 panel, 48 h
  CC50: 9.12 µM
[5]; 4 mg/kg
  Band neutrophil: 0.1 ± 0.0 x10^9/L
  Basophils: 0.0 ± 0.0 x10^9/L
  Eosinophils: 0.0 ± 0.0 x10^9/L
  Hemoglobin: 126.8 ± 10.0 g/L
  Lymphocytes: 0.2 ± 0.0 x10^9/L
  MCHC: 308.5 ± 4.9 g/L
  MCV: 52.9 ± 1.2 fL
  Monocytes: 0.2 ± 0.1 x10^9/L
  PVC: 0.4 ± 0.0 L/L
  Plasma protein: 59.5 ± 2.2 g/L
  RBC: 7.8 ± 0.7 x10^12/L
  Segmented neutrophil: 2.0 ± 0.4 x10^9/L
  Thrombocytes: 1659.0 ± 120.4 x10^9/L
  WBC: 2.5 ± 0.5 x10^9/L
[5]; 5 mg/kg
  Band neutrophil: 0.1 ± 0.0 x10^9/L
  Basophils: 0.0 ± 0.0 x10^9/L
  Eosinophils: 0.0 ± 0.0 x10^9/L
  Hemoglobin: 133.7 ± 4.4 g/L
  Lymphocytes: 0.1 ± 0.0 x10^9/L
  MCHC: 308.3 ± 5.0 g/L
  MCV: 56.2 ± 1.8 fL
  Monocytes: 0.2 ± 0.0 x10^9/L
  PVC: 0.4 ± 0.0 L/L
  Plasma protein: 55.7 ± 2.5 g/L
  RBC: 7.8 ± 0.4 x10^12/L
  Segmented neutrophil: 2.5 ± 0.2 ^* x10^9/L
  Thrombocytes: 1288.2 ± 155.8 x10^9/L
  WBC: 2.9 ± 0.3 ^* x10^9/L
[5]; C666-1-GFP-Luc2 bearing mice, 5 and 6 mg/kg, vs control groups
  spleen weight: significantly lower weight
[5]; HK1 bearing mice, 4, 6 and 8 mg/kg
  spleen weight: did not show weight loss
[5]; all treated groups
  bone marrow suppression (femur): no evidence of bone marrow suppression
[6]
  pIC50: 5.00 to 5.30
